Source: PubChem BioAssay AID248 (DTP/NCI, 2004)
Where “and” joins values, the source holds several entries; their conditions need not be identical. Equal values may be shown once. Inconclusive results and toxic doses are left out. Cut-off read from the data, not from the text of the source: active = T/C of 150% or more; inactive = T/C below 125%.

Tested on: L1210 leukemia ip in BDF1 mice, survival T/C
Test: NCI In Vivo Anticancer Drug Screen. Data for tumor model L1210 Leukemia (intraperitoneal) in B6D2F1 (BDF1) mice
Conditions: higher = longer survival
Method in brief: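 Read-out is survival time, reported as the treated-group measurement over the vehicle-control measurement.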

[1] = endpoint: mean survival time, dose: 100.0 mg/kg/injection, schedule: Q01DX009 (ip), vehicle: saline
[2] = endpoint: mean survival time, dose: 100.0 mg/kg/injection, schedule: Q04DX003 (ip), vehicle: saline
[3] = endpoint: mean survival time, dose: 200.0 mg/kg/injection, schedule: Q01DX009 (ip), vehicle: saline
[4] = endpoint: mean survival time, dose: 200.0 mg/kg/injection, schedule: Q04DX003 (ip), vehicle: saline

Measured: T/C

CCOC(N)=O
inactive: endpoint: mean survival time, dose: 27.0 mg/kg/injection, schedule: Q03HX024 (ip), vehicle: saline 97 % of control | endpoint: mean survival time, dose: 40.0 mg/kg/injection, schedule: Q03HX024 (ip), vehicle: saline 110 % of control | endpoint: mean survival time, dose: 60.0 mg/kg/injection, schedule: Q03HX024 (ip), vehicle: saline 95 % of control | endpoint: mean survival time, dose: 62.6 mg/kg/injection, schedule: Q01DX Z (ip), vehicle: carboxymethylcellulose (CMC) 106 % of control | endpoint: mean survival time, dose: 90.0 mg/kg/injection, schedule: Q03HX024 (ip), vehicle: saline 101 % of control | [1] 102 % of control | [2] 95 % of control | endpoint: mean survival time, dose: 120.0 mg/kg/injection, schedule: Q01DX009 (ip), vehicle: saline 98 % of control | endpoint: mean survival time, dose: 125.0 mg/kg/injection, schedule: Q01DX010 (ip), vehicle: saline 110 % of control and 87 % of control | endpoint: mean survival time, dose: 125.0 mg/kg/injection, schedule: Q01DX Z (ip), vehicle: saline 115 % of control | endpoint: mean survival time, dose: 125.25 mg/kg/injection, schedule: Q01DX Z (ip), vehicle: carboxymethylcellulose (CMC) 101 % of control | endpoint: mean survival time, dose: 135.0 mg/kg/injection, schedule: Q03HX024 (ip), vehicle: saline 110 % of control | endpoint: mean survival time, dose: 180.0 mg/kg/injection, schedule: Q01DX009 (ip), vehicle: saline 102 % of control | endpoint: mean survival time, dose: 188.0 mg/kg/injection, schedule: Q01DX Z (ip), vehicle: saline 100 % of control | [3] 104 % of control | [4] 101 % of control | endpoint: mean survival time, dose: 250.0 mg/kg/injection, schedule: Q01DX010 (ip), vehicle: saline 111 % of control and 112 % of control | endpoint: mean survival time, dose: 250.0 mg/kg/injection, schedule: Q01DX Z (ip), vehicle: saline 94 % of control | endpoint: mean survival time, dose: 250.5 mg/kg/injection, schedule: Q01DX Z (ip), vehicle: carboxymethylcellulose (CMC) 106 % of control | endpoint: mean survival time, dose: 266.0 mg/kg/injection, schedule: Q01DX001 (ip), vehicle: saline 100 % of control | endpoint: mean survival time, dose: 270.0 mg/kg/injection, schedule: Q01DX009 (ip), vehicle: saline 108 % of control | endpoint: mean survival time, dose: 280.0 mg/kg/injection, schedule: Q02DX010 (ip), vehicle: carboxymethylcellulose (CMC) 109 % of control | endpoint: mean survival time, dose: 375.0 mg/kg/injection, schedule: Q01DX Z (ip), vehicle: saline 110 % of control | endpoint: mean survival time, dose: 400.0 mg/kg/injection, schedule: Q01DX001 (ip), vehicle: saline 119 % of control | endpoint: mean survival time, dose: 400.0 mg/kg/injection, schedule: Q01DX009 (ip), vehicle: saline 107 % of control and 110 % of control | endpoint: mean survival time, dose: 400.0 mg/kg/injection, schedule: Q04DX003 (ip), vehicle: saline 100 % of control | endpoint: mean survival time, dose: 500.0 mg/kg/injection, schedule: Q01DX010 (ip), vehicle: saline 123 % of control | endpoint: mean survival time, dose: 500.0 mg/kg/injection, schedule: Q01DX Z (ip), vehicle: saline 105 % of control | endpoint: mean survival time, dose: 501.0 mg/kg/injection, schedule: Q01DX Z (ip), vehicle: carboxymethylcellulose (CMC) 108 % of control | endpoint: mean survival time, dose: 600.0 mg/kg/injection, schedule: Q01DX001 (ip), vehicle: saline 121 % of control | endpoint: mean survival time, dose: 600.0 mg/kg/injection, schedule: Q01DX009 (ip), vehicle: saline 98 % of control | endpoint: mean survival time, dose: 750.0 mg/kg/injection, schedule: Q01DX Z (ip), vehicle: saline 103 % of control | endpoint: mean survival time, dose: 1000.0 mg/kg/injection, schedule: Q01DX010 (ip), vehicle: saline 94 % of control | endpoint: mean survival time, dose: 1000.0 mg/kg/injection, schedule: Q01DX Z (ip), vehicle: saline 105 % of control | endpoint: mean survival time, dose: 1074.0 mg/kg/injection, schedule: Q01DX001 (ip), vehicle: saline 115 % of control | endpoint: median survival time, dose: 125.0 mg/kg/injection, schedule: Q01DX009 (ip), vehicle: saline 100 % of control | endpoint: median survival time, dose: 250.0 mg/kg/injection, schedule: Q01DX009 (ip), vehicle: saline 100 % of control | endpoint: median survival time, dose: 500.0 mg/kg/injection, schedule: Q01DX009 (ip), vehicle: saline 100 % of control and 110 % of control | endpoint: median survival time, dose: 1000.0 mg/kg/injection, schedule: Q01DX009 (ip), vehicle: saline 87 % of control

CCN(CC)CC(=O)NCC(CC)(CCN1CCCCC1)c1cccc2ccccc12 (centres undefined)
inactive: endpoint: mean survival time, dose: 50.0 mg/kg/injection, schedule: Q04DX003 (ip), vehicle: saline 92 % of control | [1] 114 % of control | [2] 102 % of control | [3] 102 % of control | [4] 97 % of control
